Measurements published in publication PMC10135964, “One Scaffold, Two Conformations: The Ring-Flip of the Messenger InsP8 Occurs under Cytosolic Conditions” (Biomolecules, 2023).
Where two headings read alike, the source gives them in different places.

Target: T1, yeast VTC2 SPX domain (residues 1–182) (Saccharomyces cerevisiae, UniProt P43585)
T1 construct: The VTC2 SPX domain (residues 1–182) was expressed with a C-terminal His6-tag; His6 (C); made in house
T1 sequence (P43585 1-182): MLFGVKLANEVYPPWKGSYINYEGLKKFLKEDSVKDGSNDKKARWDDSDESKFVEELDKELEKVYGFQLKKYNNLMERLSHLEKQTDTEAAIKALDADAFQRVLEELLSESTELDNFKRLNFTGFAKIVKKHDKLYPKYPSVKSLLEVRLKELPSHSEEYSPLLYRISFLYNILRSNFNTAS
Assay: Isothermal titration calorimetry of InsP8 binding to the VTC2 SPX domain
Conditions: 25 °C, pH 7.4, 150 mM KCl, 40 mM NaCl, mean of three replicates; for Kd: read-out: dissociation constant Kd
Experimental: The VTC2 SPX domain (residues 1–182) was expressed with a C-terminal His6-tag and purified by Ni-affinity and size-exclusion chromatography, as previously published.
Protein stocks were diluted to 300 µL with final buffer conditions: 25 mM HEPES pH 7.4, 150 mM KCl, 40 mM NaCl, 0.5 mM TCEP (ITC buffer). The exact protein concentration for each replicate was determined separately by Bradford assay. InsP8 was diluted to 500 µM in ITC buffer. For binding experiments in the presence of magnesium ions, both dilution buffers were supplemented with MgCl2 to give a final concentration of 1 mM after dilution.
ITC experiments were carried out at 25 °C in a MicroCal PEAQ-ITC calorimeter (Malvern Panalytical GmbH, Kassel, Germany), with ca. 50 µM protein in the cell and 500 µM ligand in the syringe. InsP8 was titrated into the solution in nineteen 2 µL-steps. Spacing between injections was 150 s.
The corresponding instrument software (MicroCal PEAQ-ITC Analysis) was used for baseline correction, peak integration, data fitting and determination of binding parameters.

ΔH of binding (1 mM MgCl2): -5.9 kcal/mol
−TΔS of binding (1 mM MgCl2): -3.3 kcal/mol
Kd (1 mM MgCl2): 205 nM
ΔH of binding (without divalent ions): -3.5 kcal/mol
−TΔS of binding (without divalent ions): -5.2 kcal/mol
Kd (without divalent ions): 373 nM
Compound: O=P(O)(O)O[C@@H]1[C@@H](OP(=O)(O)O)[C@H](OP(=O)(O)OP(=O)(O)O)[C@@H](OP(=O)(O)O)[C@H](OP(=O)(O)OP(=O)(O)O)[C@@H]1OP(=O)(O)O [InsP8, 1,5(PP)2-InsP4]
